Series [1] has as its system primary human dermal skin fibroblasts. The experiment in a line: Resazurin reduction (alamarBlue) viability assay, skin fibroblasts. The format is cell-based. The procedure:
(§1) Resazurin reduction assay (Fisher Scientific) was used to evaluate the potential cytotoxicity of antifibrinolytic agents toward primary human endothelial cells and skin fibroblasts. Phosphate buffer that was used to dissolve the samples was included as negative control. The assay is based on reduction of the non-fluorescent dye resazurin, to the highly fluorescent resorufin by viable cells. […] Briefly, cells in 96-well cell culture plates were treated with different concentrations of antifibrinolytic compounds (as described above). After 24 hours resazurin reagent was added to each well and the plates were incubated at 37° C. for 4 hours. Fluorescence was measured by the FLUOstar Omega Microplate Reader (BMG Labtech) using an excitation wavelength of 544 nm and an emission wavelength of 590 nm. Each assay was done in duplicate, with three replicates each. The viability was evaluated based on comparison with untreated cells.

Series [2] addresses DIP-δplasmin. The experiment in a line: Surface plasmon resonance binding to DIP-δplasmin. The procedure: Active-site blocked δplasmin was generated by treating δplasmin with equal volumes of 1 M Tris-HCl, pH 8.0 and 1 M DFP (final concentration of 1 mM DFP) at room temperature for 20 minutes, followed by an incubation on ice for several hours. Additional equal volumes of 1M Tris-HCl, pH 8.0 and 1M DFP (final concentration of 2 mM) were added and the reaction was incubated at room temperature for 20 minutes and then over night at 4° C. The DFP inhibited Splamsin (DIP-δplasmin) was dialyzed against 20 mM HEPES pH 7.5, containing 150 mM NaCl and assayed for residual activity using S-2251 synthetic substrate hydrolysis. Based upon the residual activity, >99% of the δplasmin was inactivated.
(§2) Binding studies were performed on a Biacore T100 flow biosensor (Biacore, Uppsala, Sweden) at 25° C. DIP-δplasmin (˜98% purity using SDS-PAGE) or tPA (>98% purity using SDS-PAGE) was immobilized on carboxymethyl-dextran flow cell (CM5 sensor chips, GE Healthcare) using amine-coupling chemistry. Flow cell surfaces were activated with a mixture of 1-ethyl-3-(3-dimethylaminopropyl) carbodiimide and N-hydroxysulfosuccinimide for 5 min (flow rate 10 μl/min), after which the protein (20 μg/ml in 10 mM sodium acetate, pH 5.5) was injected onto the surface. Unreacted sites were blocked for 5 minutes with 1 M ethanolamine. The analyte KD1-Y11T/L17R-KT (100 to 2000 nM) was perfused through flow cells in HBS-P buffer (20 mM HEPES, pH 7.4, 100 mM NaCl, 0.005% (v/v) P20) at 10 μl/minutes for 6 minutes. After changing to HBS-P buffer without the protein, analyte dissociation was monitored for 10 min. Flow cells were regenerated with HBS-P containing 20 mM EACA. Data were corrected for nonspecific binding by subtracting signals obtained with the analyte infused through a flow cell without the coupled protein. Binding was analyzed with BIAevaluation software (Biacore) using a 1:1 binding model. Kd values were calculated from the quotient of the derived dissociation (kd) and association (ka) rate constants.
In general terms: Surface plasmon resonance follows binding to a sensor surface in real time, without labels.

The target in series [3] is T1, Plasma kallikrein (pKLK) (Homo sapiens, UniProt P03952).
T1 construct: Plasma kallikrein (pKLK) was from Enzyme Research Laboratories; purchased Enzyme Research Laboratories (South Bend, IN)
As to the kind of experiment: Protease inhibition assay, plasma kallikrein. The format is biochemical. The method, then: (§3) All reactions were carried out in TBS, pH 7.5 (50 mM Tris-HCL, pH 7.5, containing 100 mM NaCl), containing 0.1 mg bovine serum albumin/ml (TBS/BSA) and 2 mM Ca2+(TBS/BSA/Ca2+, pH 7.5). […] The inhibition constant, K* was determined using the nonlinear regression data analysis program Grafit.
(§4) Ki values were obtained by correcting for the effect of substrate according to Beith (38), using equation 2, where (S) is substrate concentration and KM is specific for each enzyme.

The test system of series [4] is HUVEC. The format is cell-based, human. The procedure: as §1
In series [5] the test system is tPA-induced plasma clot fibrinolysis. As to the kind of experiment: Fibrinolysis (clot lysis) assay in normal pooled plasma. The format is biochemical. The conditions noted are these: human NPP. The procedure: The method of Sperzel and Huetter (40) was followed with minor modifications as outlined earlier (32,41). Briefly, IIa was used to initiate fibrin formation in NPP and the lysis of the formed clot (fibrinolysis) was induced by simultaneous addition of tPA. Clot formation and lysis were monitored with a Molecular Devices microplate reader (SPECTRAmax 190) measuring the optical density at 405 nm. […] Two hundred twenty-five μL of this mixture was then added to 25 μL IIa and tPA in TBS/BSA containing 25 mM CaCl2). In the 250 μL final volume, concentration of IIa was 0.15 μg/ml and that of tPA was 1 μg/ml. Under control conditions (zero tPA and zero test compound), OD405 increased immediately indicating clotting followed by an extremely slow decrease representing fibrinolysis. As clotting was almost complete after 5 minutes, fibrinolysis induced by tPA was evaluated as a relative decrease of OD405 up to 60 minutes.
Addition of thrombin (IIa) to human normal pooled plasma (NPP) caused fibrin formation, which is reflected by the increase in OD405 (black curve, FIGS. 3A and 3B). Simultaneous addition of tPA caused initial clot formation followed by dissolution of fibrin induced by tPA-mediated conversion of plasminogen to plasmin (black curve with closed circles, FIGS. 3A and 3B); the midpoint of fibrinolysis was ˜8 min in each case. Both antifibrinolytic agents inhibited fibrinolysis in a dose-dependent manner.

Series [6] has as its system tPA-induced lysis of clot formed in whole blood. As to the kind of experiment: Thromboelastography, tPA-induced clot lysis in whole blood. The format is biochemical. The method, then: The effect of different concentrations of KD1-Y11T/R15K/L17R-KCOOH (KD1TM) on fibrinolysis was evaluated with thromboelastography (TEG) using a TEG 5000 Thrombelastograph (Haemonetics Corp, Braintree, MA, USA). Each clot formation/lysis assay contained 300 μL of citrated whole blood, thrombin (0.15 μM, final concentration), tPA (2 nM, final concentration), CaCl2) (10 mM, final concentration) and various concentrations of KD1TM in TBS/BSA (50 mM Tris-HCl, 100 mM NaCl, containing 0.1 mg bovine serum albumin/mL) to make the final volume to 360 μL. Thrombin, tPA and CaCl2) were added last to initiate simultaneous clotting and fibrinolysis. […] Each experiment was performed at least 60 min after the maximal amplitude was reached to establish the LY60 value. TEG Analytical Software (version 4.2.3; Haemonetics Corporation, Braintree, MA, USA) was used to calculate the time to clot initiation (R), maximal clot strength (maximal amplitude (MA), which was directly related to the shear elastic modulus strength, G), and percent lysis 60 min after MA (LY60).

Series [7] addresses T2, human plasmin (Homo sapiens, UniProt P00747).
T2 construct: purchased Hematologic Technologies Inc (Essex Junction, VT)
As to the kind of experiment: Stability study: plasmin inhibition after storage. The format is biochemical. Conditions: 0.59 mg/ml kept at 4° C., room temperature and 37° C. for a week. The procedure:
In stability studies, the KD1Y11T/R15K/L17R-KT sample (0.59 mg/ml) was kept at 4° C., at room temperature and at 37° C. for a week and its plasmin inhibition was studied each day. […] Reactions were carried out in TBS/BSA and 2 mM calcium. Human plasmin was incubated with various concentrations of rHuKD1-TM for 1 hour at room temperature in a 96-well microtiter plate. Synthetic substrate for plasmin was then added to a final concentration of 1 KM, and residual amidolytic activity was measured in a kinetic microplate reader (Molecular Devices). In Table 7 below, the apparent inhibition constant, Ki* was determined using the nonlinear regression data analysis program. Data are analyzed using an equation for a tight-binding inhibitor and Ki values are obtained by correcting for the effect of substrate concentration.

Series [8] has as its system mouse injury models. The conditions noted are these: liver laceration model and tail amputation model; cited from earlier work.
Series [9] concerns the target T3, human FXIa (Homo sapiens, UniProt P03951).
T3 construct: Purified human FXIa, thrombin (IIa) and plasmin were purchased; purchased Hematologic Technologies Inc (Essex Junction, VT)
As to the kind of experiment: Protease inhibition assay, factor XIa. Conditions: up to 3 μM inhibitor; 1 nM FXIa; triplicate. The format is biochemical. The method, then: as §3, §4

The target of series [10] is T4, tPA (Homo sapiens, UniProt P00750).
T4 construct: purchased Genentech (South San Francisco, CA)
As to the kind of experiment: Surface plasmon resonance binding to tPA. The conditions noted are these: 25° C; 1:1 binding model. The procedure: as §2

Series [11] has as its target T5, FVIIa/sTF (Homo sapiens, UniProt P08709).
T5 construct: human factor VIIa (FVIIa) was prepared as described previously (34)
As to the kind of experiment: Protease inhibition assay, FVIIa/soluble tissue factor. The format is biochemical. Conditions: up to 3 μM inhibitor; 20 nM FVIIa/sTF; triplicate. The method, then: as §3, §4

Series [12] has as its system plasmin induced lysis of clot formed in whole blood. As to the kind of experiment: Thromboelastography, plasmin induced clot lysis in whole blood. The format is biochemical, human. The method, then:
Plasmin and CaCl2) were added last to initiate simultaneous clotting and fibrinolysis. […] The thromboelastograph was calibrated each day and each inhibitor concentration was tested in duplicate. TEG Analytical Software (version 4.2.2; Haemonetics Corporation, Braintree, MA) was used to calculate the time to clot initiation (R), maximal clot strength (maximal amplitude (MA), which was directly related to the shear elastic modulus strength, G), and percent lysis 60 minutes after MA (LY60) (42).

The mark [13] stands for this setting: NHB + […] plasmin, inhibitor 5 μM.

Read-outs that look alike come from different tables or passages of the source.

T4 sequence (P00750 36-562): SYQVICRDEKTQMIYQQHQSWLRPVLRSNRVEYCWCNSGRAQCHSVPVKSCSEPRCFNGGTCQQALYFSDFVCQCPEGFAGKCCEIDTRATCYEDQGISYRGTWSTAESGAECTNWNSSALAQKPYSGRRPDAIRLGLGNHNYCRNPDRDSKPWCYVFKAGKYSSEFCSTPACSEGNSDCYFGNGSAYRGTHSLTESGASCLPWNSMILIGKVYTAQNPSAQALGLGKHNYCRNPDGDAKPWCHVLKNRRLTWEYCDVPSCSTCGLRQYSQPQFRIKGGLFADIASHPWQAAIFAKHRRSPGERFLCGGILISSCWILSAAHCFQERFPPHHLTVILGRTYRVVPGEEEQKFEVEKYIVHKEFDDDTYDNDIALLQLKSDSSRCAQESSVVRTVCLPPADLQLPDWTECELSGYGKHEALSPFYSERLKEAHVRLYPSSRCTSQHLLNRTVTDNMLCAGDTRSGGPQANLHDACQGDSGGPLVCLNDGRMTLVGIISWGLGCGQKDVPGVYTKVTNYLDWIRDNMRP
T1 sequence (P03952 20-390 limits assumed): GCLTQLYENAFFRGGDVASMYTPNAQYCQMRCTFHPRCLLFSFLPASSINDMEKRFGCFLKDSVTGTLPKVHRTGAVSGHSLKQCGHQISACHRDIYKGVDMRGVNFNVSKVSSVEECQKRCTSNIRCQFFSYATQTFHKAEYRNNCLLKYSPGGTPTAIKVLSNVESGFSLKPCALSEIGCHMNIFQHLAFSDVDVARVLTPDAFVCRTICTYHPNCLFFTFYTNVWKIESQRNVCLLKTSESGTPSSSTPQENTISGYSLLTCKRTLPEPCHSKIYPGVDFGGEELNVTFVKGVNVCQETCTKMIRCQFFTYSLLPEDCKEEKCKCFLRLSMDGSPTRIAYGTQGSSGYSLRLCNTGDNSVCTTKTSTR
T1 sequence (P03952 391-638 limits assumed): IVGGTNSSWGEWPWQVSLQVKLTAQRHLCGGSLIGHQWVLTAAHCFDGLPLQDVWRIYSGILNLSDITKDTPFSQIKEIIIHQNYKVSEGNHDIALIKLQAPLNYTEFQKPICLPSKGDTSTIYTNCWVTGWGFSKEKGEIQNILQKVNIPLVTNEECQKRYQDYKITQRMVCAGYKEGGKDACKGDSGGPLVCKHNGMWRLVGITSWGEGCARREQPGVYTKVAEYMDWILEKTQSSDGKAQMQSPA
T3 sequence (P03951 19-387 limits assumed): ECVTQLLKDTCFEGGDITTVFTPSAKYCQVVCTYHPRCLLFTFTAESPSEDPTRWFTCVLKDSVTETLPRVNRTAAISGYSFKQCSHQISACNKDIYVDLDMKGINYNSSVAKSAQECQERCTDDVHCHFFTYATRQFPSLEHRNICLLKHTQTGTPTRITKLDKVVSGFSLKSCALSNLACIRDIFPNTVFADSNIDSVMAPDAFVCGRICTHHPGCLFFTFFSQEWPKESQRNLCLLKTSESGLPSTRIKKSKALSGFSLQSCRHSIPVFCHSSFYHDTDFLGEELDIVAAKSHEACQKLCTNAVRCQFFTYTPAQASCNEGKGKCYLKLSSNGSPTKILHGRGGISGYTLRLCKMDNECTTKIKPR
T3 sequence (P03951 388-625 limits assumed): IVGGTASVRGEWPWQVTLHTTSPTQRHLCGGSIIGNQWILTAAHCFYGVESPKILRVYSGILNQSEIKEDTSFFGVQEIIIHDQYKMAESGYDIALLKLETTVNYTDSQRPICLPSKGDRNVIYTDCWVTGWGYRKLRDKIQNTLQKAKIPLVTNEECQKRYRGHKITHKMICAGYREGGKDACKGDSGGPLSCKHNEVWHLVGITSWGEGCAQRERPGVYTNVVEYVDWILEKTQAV
T2 sequence (P00747 97-580 limits assumed): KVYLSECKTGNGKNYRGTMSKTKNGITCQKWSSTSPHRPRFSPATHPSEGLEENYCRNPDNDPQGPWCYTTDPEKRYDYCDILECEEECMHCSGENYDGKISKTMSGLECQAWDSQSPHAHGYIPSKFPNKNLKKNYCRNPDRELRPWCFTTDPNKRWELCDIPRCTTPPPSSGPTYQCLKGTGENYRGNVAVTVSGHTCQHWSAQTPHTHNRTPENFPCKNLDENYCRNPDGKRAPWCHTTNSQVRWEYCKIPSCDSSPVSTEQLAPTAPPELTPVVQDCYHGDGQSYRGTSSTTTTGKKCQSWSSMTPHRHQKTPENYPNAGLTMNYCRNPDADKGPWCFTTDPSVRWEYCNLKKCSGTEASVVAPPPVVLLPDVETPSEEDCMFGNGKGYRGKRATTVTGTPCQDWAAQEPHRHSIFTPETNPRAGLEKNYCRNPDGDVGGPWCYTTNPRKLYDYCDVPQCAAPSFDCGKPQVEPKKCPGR
T2 sequence (P00747 581-810 limits assumed): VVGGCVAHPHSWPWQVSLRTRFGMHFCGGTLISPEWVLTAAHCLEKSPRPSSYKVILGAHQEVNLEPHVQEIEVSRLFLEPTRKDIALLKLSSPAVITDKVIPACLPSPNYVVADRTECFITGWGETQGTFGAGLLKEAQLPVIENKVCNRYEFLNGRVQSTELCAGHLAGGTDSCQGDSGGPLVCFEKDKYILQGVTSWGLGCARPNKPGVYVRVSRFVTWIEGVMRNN
T5 sequence (P08709 213-466 limits assumed): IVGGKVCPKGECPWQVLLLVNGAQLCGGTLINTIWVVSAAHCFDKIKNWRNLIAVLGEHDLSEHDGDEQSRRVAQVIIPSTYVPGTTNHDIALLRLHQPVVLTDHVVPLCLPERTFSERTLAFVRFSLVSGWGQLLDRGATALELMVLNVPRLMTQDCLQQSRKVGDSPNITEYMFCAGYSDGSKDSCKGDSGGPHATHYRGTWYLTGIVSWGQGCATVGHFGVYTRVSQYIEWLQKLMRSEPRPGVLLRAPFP
T5 sequence (P08709 61-212 limits assumed): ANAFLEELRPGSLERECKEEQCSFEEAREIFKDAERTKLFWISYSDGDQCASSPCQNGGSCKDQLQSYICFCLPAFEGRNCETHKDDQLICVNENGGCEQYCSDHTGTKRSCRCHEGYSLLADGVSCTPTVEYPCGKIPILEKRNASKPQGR
T5 sequence (P13726 33-251 partner limits assumed): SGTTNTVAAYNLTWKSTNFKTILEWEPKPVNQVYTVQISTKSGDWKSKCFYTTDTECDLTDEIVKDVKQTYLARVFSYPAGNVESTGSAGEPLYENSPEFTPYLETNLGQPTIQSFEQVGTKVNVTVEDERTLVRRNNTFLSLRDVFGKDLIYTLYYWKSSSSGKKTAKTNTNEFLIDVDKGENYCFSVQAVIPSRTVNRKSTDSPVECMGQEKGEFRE

“KD1Y11T/R15K/L17R-KT: 60-residue triple mutant of Kunitz domain1 of human TFPI-2, SEQ ID NO: 1, C-terminal IEK, expressed in Pichia (NAEICLLPLDTGPCKARLLRYYYDRYTQSCRQFLYGGCEGNANNFYTWEACDDACWRIEK)”: in series [1], the “Fibroblast cell viability (FIG. 5)” value was “not significantly different from the untreated cells”. For the same substance, in series [2] (read-out: Affinity of binding to the plasmin kringle domain), the Kd is roughly 40 nM. For the same substance, in [3], the “Concentration until which kallikrein inhibition is not observed” value was 25 µM. The “HUVEC viability (FIG. 4)” value in [4] was “not significantly different from the untreated cells”. In addition, the “Fibrinolysis midpoint (Example 2)” value in series [5] (0.5 μM inhibitor + tPA, ˜8 min without inhibitor) is given as roughly 15 min. Moreover, in [5] (3 μM inhibitor + tPA), the “Effect on tPA induced fibrinolysis (Example 2)” value was “completely prevented tPA induced fibrinolysis”. For the same substance, the “Effect on clot formation or fibrinolysis in the absence of tPA (Example 2)” value in series [5] (3 μM inhibitor, no tPA) is “had no effect on clot formation or fibrinolysis”. In addition, the G in [6] (2 nM tPA + 2 μM KD1TM, […] thrombin) was found to be 3525.4 dyn/cm^2. The MA in series [6] (2 nM tPA + 4 μM KD1TM, […] thrombin) stood at 44.2 mm. Besides, in series [6] (2 nM tPA, 4 μM KD1TM), the “Clot strength MA restored, relative to blood without tPA” value was determined as 98% and the “G restored, relative to blood without tPA” value was 96%. Also, in series [7], the “Stability of plasmin inhibition on storage” value was “plasmin inhibitory properties are not altered”.
For the substance “KD1-Y11T/L17R-KT: 60-residue double mutant (Y11T/L17R) of Kunitz domain1 of human TFPI-2 with C-terminal IEK (NAEICLLPLDTGPCRARLLRYYYDRYTQSCRQFLYGGCEGNANNFYTWEACDDACWRIEK)”, in series [2] (25° C, 1:1 binding model), the “koff, DIP-δplasmin” value is reported as 7.13±0.9×10^−5 s^−1 and the “kon, DIP-δplasmin” value is on record as 1.49±0.3×10^3 M^−1s^−1. Also, in [2] (25° C, 1:1 binding model, read-out: Kd, DIP-δplasmin (kringle domain of plasminogen/plasmin)), the Kd is roughly 50 nM. The “Inhibition profile with pKLK” value in [3] (up to 3 μM inhibitor, 1 nM pKLK, triplicate) is “No inhibition was observed”. Further, the “Prevention of blood loss” value in [8] is reported as “successful in preventing blood loss”. Moreover, the “Inhibition profile with FXIa” value in series [9] is listed as “No inhibition was observed”. For the same substance, in series [10], the Kd was roughly 35 nM; the “koff, tPA” value is on record as 1.05±0.7×10^−4 s^−1; the “kon, tPA” value is given as 2.91±0.4×10^3 M^−1s^−1. In series [5] (0.5 μM inhibitor + tPA), the “Max OD405” value came out at 1.54 ± 0.14 and the “OD405 at 60 min” value is 0.85 ± 0.13. Besides, in [5] (1.0 μM inhibitor + tPA), the Fibrinolysis midpoint time turned out to be 27 ± 1.1 min, the “Max OD405” value turned out to be 1.54 ± 0.11 and the “OD405 at 60 min” value stood at 0.84 ± 0.12. Moreover, in [5] (2.0 μM inhibitor + tPA), the Fibrinolysis midpoint time was greater than 60 min, the “Max OD405” value was found to be 1.58 ± 0.09 and the “OD405 at 60 min” value was 1.35 ± 0.06. In series [5] (3.0 μM inhibitor + tPA), the Fibrinolysis midpoint time was greater than 60 min, the “Max OD405” value stood at 1.71 ± 0.10 and the “OD405 at 60 min” value is reported as 1.57 ± 0.08. Besides, the “OD405 at 60 min” value in [5] ([…] inhibitor + tPA) is reported as 0.86 ± 0.15. In addition, the “Inhibition profile with FVIIa/sTF” value in series [11] is “No inhibition was observed”. In series [12] (setting [13]), the G was roughly 3004 dyn/cm^2 and the LY60 was roughly 12%. In series [12] ([…] plasmin, inhibitor 5 μM), the “Clot strength MA restored, relative to blood without plasmin” value is roughly 80% and the “G restored, relative to blood without plasmin” value was roughly 65%. For the same substance, in series [12] ([…] plasmin, inhibitor 7.5 μM), the “G restored, relative to blood without plasmin” value is on record as roughly 70% and the “MA restored, relative to blood without plasmin” value was roughly 83%.

The values are drawn from patent US20230331817A1 (The Regents of the University of California, priority 2020, published 2023).
